Columns and labels:
[1] = test system: Dx5; conditions: previously characterized; cited from earlier work
[2] = test system: MDCK cells; assay: metabolic rate of MDCK cells grown on the silicon sensor surface; assay type: cell-based, canine; conditions: 3 μM epinephrine, primary introduction

COc1cccc2c1C(=O)c1c(O)c3c(c(O)c1C2=O)C[C@@](O)(C(=O)CO)C[C@@H]3O[C@H]1C[C@H](N)[C@H](O)[C@H](C)O1 [doxorubicin]
resistance of Dx5 [1]: resistant

CNC[C@H](O)c1ccc(O)c(O)c1 [epinephrine]
change of metabolic rate vs. control rate [2]: did not significantly alter the metabolic rate

CC[C@]1(O)C[C@H]2CN(CCc3c([nH]c4ccccc34)[C@@](C(=O)OC)(c3cc4c(cc3OC)N(C=O)[C@H]3[C@@](O)(C(=O)OC)[C@H](OC(C)=O)[C@]5(CC)C=CCN6CC[C@]43[C@@H]65)C2)C1 [vincristine]
resistance of Dx5 [1]: resistant
